{"source": "patent US20050203135A1", "about": "“Antagonists for treatment of CD/11CD18 adhesion receptor mediated disorders” (Genentech, Inc., priority 1998, published 2005)", "key": {"human LFA-1:ICAM-1": {"biological_target": "T1, human LFA-1:ICAM-1 (Homo sapiens, UniProt P05107+P20701)", "T1 construct": "containing the full-length cDNAs for the aL (CD11a) and b2 (CD18) subunits; made in house", "T1 sequence (P20701 26-1170)": "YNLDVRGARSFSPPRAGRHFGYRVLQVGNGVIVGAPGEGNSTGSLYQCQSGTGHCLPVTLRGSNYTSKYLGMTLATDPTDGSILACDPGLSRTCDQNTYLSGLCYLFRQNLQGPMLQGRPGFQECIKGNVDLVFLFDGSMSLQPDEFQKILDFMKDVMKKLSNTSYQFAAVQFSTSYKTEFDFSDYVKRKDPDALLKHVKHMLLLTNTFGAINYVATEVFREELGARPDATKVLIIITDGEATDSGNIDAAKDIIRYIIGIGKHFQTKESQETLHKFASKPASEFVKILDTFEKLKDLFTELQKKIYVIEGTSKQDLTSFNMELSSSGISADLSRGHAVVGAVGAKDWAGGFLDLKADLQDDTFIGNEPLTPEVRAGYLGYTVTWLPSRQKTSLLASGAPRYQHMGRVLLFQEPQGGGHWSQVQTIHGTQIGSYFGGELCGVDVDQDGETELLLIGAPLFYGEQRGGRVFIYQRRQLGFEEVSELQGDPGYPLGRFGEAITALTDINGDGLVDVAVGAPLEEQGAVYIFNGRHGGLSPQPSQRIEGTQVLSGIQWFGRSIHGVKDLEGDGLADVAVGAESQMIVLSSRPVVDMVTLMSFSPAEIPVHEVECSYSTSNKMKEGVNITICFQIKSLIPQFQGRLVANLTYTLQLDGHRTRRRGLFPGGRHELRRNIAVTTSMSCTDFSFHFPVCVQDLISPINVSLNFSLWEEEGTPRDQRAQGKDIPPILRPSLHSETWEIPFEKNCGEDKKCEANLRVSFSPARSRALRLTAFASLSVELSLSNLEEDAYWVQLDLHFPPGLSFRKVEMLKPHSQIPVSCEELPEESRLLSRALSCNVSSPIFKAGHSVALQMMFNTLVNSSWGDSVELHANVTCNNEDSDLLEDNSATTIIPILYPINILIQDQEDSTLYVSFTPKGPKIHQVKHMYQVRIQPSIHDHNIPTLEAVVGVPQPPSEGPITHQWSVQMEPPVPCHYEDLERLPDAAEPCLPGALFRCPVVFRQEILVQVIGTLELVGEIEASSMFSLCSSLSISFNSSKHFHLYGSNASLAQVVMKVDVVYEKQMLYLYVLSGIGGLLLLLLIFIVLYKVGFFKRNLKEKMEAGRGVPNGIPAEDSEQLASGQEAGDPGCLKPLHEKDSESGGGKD", "T1 sequence (P05107 23-769)": "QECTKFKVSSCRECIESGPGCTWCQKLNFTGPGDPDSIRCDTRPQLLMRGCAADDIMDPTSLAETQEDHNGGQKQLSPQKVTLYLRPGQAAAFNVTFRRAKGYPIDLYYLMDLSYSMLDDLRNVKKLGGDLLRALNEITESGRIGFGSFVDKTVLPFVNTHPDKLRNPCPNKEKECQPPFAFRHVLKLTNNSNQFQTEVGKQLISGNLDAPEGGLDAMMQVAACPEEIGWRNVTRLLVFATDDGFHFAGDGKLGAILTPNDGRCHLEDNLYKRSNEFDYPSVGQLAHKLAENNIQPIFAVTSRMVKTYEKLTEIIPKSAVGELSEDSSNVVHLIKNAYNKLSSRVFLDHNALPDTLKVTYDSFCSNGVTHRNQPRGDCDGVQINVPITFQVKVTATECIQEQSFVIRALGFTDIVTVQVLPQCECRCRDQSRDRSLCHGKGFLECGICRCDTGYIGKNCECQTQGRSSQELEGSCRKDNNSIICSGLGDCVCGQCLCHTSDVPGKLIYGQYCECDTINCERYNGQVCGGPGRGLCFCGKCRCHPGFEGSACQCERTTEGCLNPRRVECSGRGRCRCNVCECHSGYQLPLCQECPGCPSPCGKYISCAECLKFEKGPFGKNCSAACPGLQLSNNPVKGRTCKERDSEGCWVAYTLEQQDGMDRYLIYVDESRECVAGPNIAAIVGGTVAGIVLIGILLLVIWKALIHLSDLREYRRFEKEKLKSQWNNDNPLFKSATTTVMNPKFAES", "test": "human LFA-1:ICAM-1 receptor binding assay (format not stated)"}, "[1]": {"tested_on": "HuT 78 cell adhesion to 5dICAM-Ig", "test": "Human T-cell adhesion assay (cell attachment assay)", "type": "cell-based", "conditions": "HuT78", "experimental": "The T-cell adhesion assay is performed using a human T-lymphoid cell line HuT 78. Goat anti-HuIgG(Fc) was diluted to 2 μg/ml in PBS and 96-well plates were coated with 50 μl/well @ 37° C. for 1 h. Plates were washed with PBS and blocked for 1 h @ room temperature with 1% BSA in PBS. 5 domain ICAM-Ig was diluted to 100 ng/ml in PBS and 50 μl/well was added to the plates O/N @ 4° C. HuT 78 cells were centrifuged at 100 g and the cell pellet was treated with 5 mM EDTA for 5′ at 37° C. in a 5% CO2 incubator. Cells were washed in 0.14M NaCl, 0.02M Hepes, 0.2% Glucose and 0.1 mM MnCl2 (assay buffer) and centrifuged. The cells were resuspended in assay buffer to 3.0×10^6 c/ml. Inhibitors were diluted in assay buffer to a 2× final concentration and pre-incubated with HuT 78 cells for 30′ at room temperature. 100 μl/well of cells and inhibitors were added to the plates and incubated at room temperature for 1 h. 100 μl/well PBS was added and the plates were sealed and centrifuged inverted at 100 g for 5′. Unattached cells were flicked out of the plate and excess PBS was blotted on a paper towel. […] The enzyme reaction was stopped with 90 μl/well 50 mM Glycine/5 mM EDTA and read on a platereader at […]. HUT 78 cell adhesion to 5dICAM-Ig is measured using the p-nitrophenyl n-acetyl-β-D-glucosaminide method of Landegren, U. (1984) J. Immunol. […]"}}}
{"smiles": "O=C(N[C@@H](Cc1c[nH]c2ccccc12)C(=O)O)c1ccccc1Br", "note": "[2-Bromobenzoyltryptophan]", "values": [{"measurement": "IC50", "setting": "human LFA-1:ICAM-1", "result": "~2", "unit": "µM"}, {"measurement": "IC50", "setting": "[1]", "result": "~10", "unit": "µM"}]}
